Patent US10660967B2, “Curcumin conjugates and methods of use thereof” (priority 2016, dated 2020)
Read-outs that look alike come from different tables or passages of the source.

How the values were obtained:
[1] = test system: MCF7 (breast) carcinoma cell line; assay: Anti-tumor properties, MTT; type: cell-based; settings: Homo sapiens, MCF7; read-out: IC50 (μM) MCF7 (breast)
Method in brief: (§1)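 Cells seeded at 10×10^3 per well for 24 h, then exposed to compound in serum-free medium (final up to 100 μM, 0.5% DMSO vehicle) for 72 h in triplicate. Viability by MTT reduction (4 h, SDS solubilised), absorbance 595 nm/ref 620 nm; IC50 from survival curves.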

[2] = test system: HepG2 (hepatocellular) carcinoma cell line; assay: Anti-tumor properties, MTT; type: cell-based; settings: Homo sapiens, HepG2; read-out: IC50 (μM) HepG2 (liver)
Method in brief: as §1

[3] = test system: HCT116 (colon) carcinoma cell line; assay: Anti-tumor properties, MTT; type: cell-based; settings: Homo sapiens, HCT-116; read-out: IC50 (μM) HCT116 (colon)
Method in brief: as §1

[4] = test system: Streptococcus pyogenes ATCC19615; assay: Antimicrobial MIC, agar dilution
[5] = test system: gastric mucosa; assay: Ulcerogenic liability (ulcer index); type: in vivo, albino mice; settings: orally, three successive days, 10 mg/kg indomethacin mol equivalent; for Number of animals with ulcer: 6 animals per group; for Ulcer index: sum of the three values
Method in brief: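 Albino mice were fasted 18 h before dosing, and controls got saline with a few drops of Tween 80. Gastric mucosa was checked under a 10× lens for lesions and erosions. The ulcer index combines percentage incidence divided by 10, mean ulcers per stomach and mean severity.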

[6] = test system: Pseudomonas aeruginosa ATCC27853; assay: Antimicrobial MIC, agar dilution
[7] = test system: Candida albicans (local isolate); assay: Antimicrobial MIC, agar dilution; settings: Candida albicans, read-out: Minimum inhibitory concentration (MIC)
[8] = test system: Staphylococcus aureus ATCC25923; assay: Antimicrobial MIC, agar dilution
[9] = test system: PC3 (prostate) carcinoma cell line; assay: Anti-tumor properties, MTT; type: cell-based; settings: Homo sapiens
[10] = test system: PHA-stimulated splenocytes; assay: Proliferative response of PHA-stimulated splenocytes (MTT assay); type: cell-based; settings: PHA 5 μg/ml, 72 hr; compounds at 5 μM (method says 10 μM); ratio of O.D. versus vehicle control
Method in brief: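 Readout was MTT absorbance (570 nm, reference 690 nm) after 72 h culture at 37° C. Splenocytes at 1×10^6 cells/well received test compound (10 μM final) alone or plus PHA 5 μg/ml as T-cell mitogen. Values are OD ratios of compound over vehicle control (stimulation index).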

[11] = test system: Salmonella typhi ATCC19430; assay: Antimicrobial MIC, agar dilution; type: cell-based; settings: Salmonella enterica, read-out: Minimum inhibitory concentration (MIC)
[12] = test system: lipopolysaccharide-stimulated peritoneal macrophages; assay: Production of nitric oxide by lipopolysaccharide-stimulated peritoneal macrophages (Greiss reagent); type: cell-based; design: Potency (%): % inhibition of nitric oxide production relative to lipopolysaccharide-stimulated macrophages: concentration or dose not given beside the values; settings: LPS-stimulated peritoneal macrophages; for Nitric oxide (nitrite) concentration, μM (average ± SD): 24 h, nitrite by Greiss reagent
Method in brief: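 NO output was quantified as accumulated nitrite, reacting supernatant with Greiss reagent (sulfanilamide/α-naphthylamine) and reading at 532 nm. Beforehand, cells had been incubated 24 h at 37° C. in nitrite-free, 0.1% BSA medium with 0.5–10 ng/ml LPS, with or without catecholamines at […].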

[13] = test system: A-549 (lung) carcinoma cell line; assay: Anti-tumor properties, MTT; type: cell-based; settings: Homo sapiens, A549
[14] = ATCC19615, 18 h, read-out: Minimum inhibitory concentration (MIC)
[15] = ATCC19615, read-out: Minimum inhibitory concentration (MIC)
[16] = ATCC27853, 18 h, read-out: Minimum inhibitory concentration (MIC)
[17] = ATCC27853, read-out: Minimum inhibitory concentration (MIC)
[18] = ATCC25923, 18 h, read-out: Minimum inhibitory concentration (MIC)
[19] = ATCC25923, read-out: Minimum inhibitory concentration (MIC)

| Compound | IC50 [1] [µM] | IC50 [2] [µM] | IC50 [3] [µM] | MIC [4, 14] [µg/mL] | MIC [4, 15] [µM] | % Incidence of ulcer divided by 10 [5] | Average of ulcer number [5] | Average severity of ulcer [5] | Number of animals with ulcer [5] | Ulcer index [5] | MIC [6, 16] [µg/mL] | MIC [6, 17] [µM] | MIC ([7]; 18 h) [µg/mL] | MIC [7] [µM] | MIC [8, 18] [µg/mL] | MIC [8, 19] [µM] | IC50 [9] [µM] | Stimulation Index (average ± SD) [10] | MIC ([11]; 18 h) [µg/mL] | MIC [11] [µM] | other results |
| --- | --- | --- | --- | --- | --- | --- | --- | --- | --- | --- | --- | --- | --- | --- | --- | --- | --- | --- | --- | --- | --- |
| COc1cc(/C=C/C(=O)CC(=O)/C=C/c2ccc(OC(=O)CCN)c(OC)c2)ccc1OC(=O)CCN.Cl.Cl [HCl-β-Ala-Cur, 3,3′-((((1E,6E)-3,5-dioxohepta-1,6-diene-1,7-diyl)bis(2-methoxy-4,1-phenylene))bis(oxy))bis(3-oxopropan-1-aminium) chloride] | 9.36 | 36.4 | 42.3 | 1 | 1.71 | 0 | 0 | 0 | 0/6 | 0 | 1 | 1.71 | 0.5 | 0.857 | 1 | 1.71 | 30.2 | 1.39 ± 0.98 | 1 | 1.71 | Potency (%): % inhibition of nitric oxide production relative to lipopolysaccharide-stimulated macrophages [12]: 41.68%; Nitric oxide (nitrite) concentration, μM (average ± SD) [12]: 15.93 ± 0.29 µM; IC50 [13]: 32.4 µM |
| COc1cc(/C=C/C(=O)CC(=O)/C=C/c2ccc(OC(=O)[C@@H](C)NC(=O)OCc3ccccc3)c(OC)c2)ccc1OC(=O)[C@@H](C)NC(=O)OCc1ccccc1 [Z-D-Ala-Cur, ((1E,6E)-3,5-dioxohepta-1,6-diene-1,7-diyl)bis(2-methoxy-4,1-phenylene) (2R,2′R)-bis(2-(((benzyloxy)carbonyl)amino)propanoate)] | 73 | > 100 | > 100 | 0.125 | 0.161 | 0 | 0 | 0 | 0/6 | 0 | 1 | 1.28 | 0.5 | 0.642 | 0.5 | 0.642 | > 100 | 1.59 ± 0.14 | 0.5 | 0.642 | Potency (%): % inhibition of nitric oxide production relative to lipopolysaccharide-stimulated macrophages [12]: 35.45%; Nitric oxide (nitrite) concentration, μM (average ± SD) [12]: 17.63 ± 0.92 µM; IC50 [13]: > 100 µM |
| COc1cc(/C=C/C(=O)CC(=O)/C=C/c2ccc(OC(=O)[C@@H](CCSC)NC(=O)OCc3ccccc3)c(OC)c2)ccc1OC(=O)[C@@H](CCSC)NC(=O)OCc1ccccc1 [Z-D-Met-Cur, ((1E,6E)-3,5-dioxohepta-1,6-diene-1,7-diyl)bis(2-methoxy-4,1-phenylene) (2R,2′R)-bis(2-(((benzyloxy)carbonyl)amino)-4-(methylthio)butanoate)] | > 100 | > 100 | > 100 | 0.125 | 0.139 | 0 | 0 | 0 | 0/6 | 0 | 1 | 1.11 | 0.125 | 0.139 | 0.125 | 0.139 | > 100 | 1.37 ± 0.29 | 0.5 | 0.556 | Potency (%): % inhibition of nitric oxide production relative to lipopolysaccharide-stimulated macrophages [12]: 40.84%; Nitric oxide (nitrite) concentration, μM (average ± SD) [12]: 16.16 ± 1.90 µM; IC50 [13]: > 100 µM |
